Results as given in PubChem BioAssay (NCI).
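Five compound concentrations were applied to cells in 96-well plates for 48 hours; endpoints were derived by simple linear interpolation of the resulting dose-response curve. TGI: total growth inhibition.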

tested on: MALME-3M melanoma; experiment: DTP human tumour cell line panel, 48 h

Row | SMILES | TGI
1 | CCOC(=O)c1ccc(NCc2ccc3oc(=O)c(-c4ccccc4)nc3c2)cc1 | 38.8 µM
2 | CCOC(=O)C1C(=O)CC1(C)C (stereo unspecified) | > 10 µM

tested on: MCF7 breast; experiment: DTP human tumour cell line panel, 48 h

Row | SMILES | TGI
3 | C(/C=C/Nc1ccc(Oc2ccccc2)cc1)=Nc1ccc(Oc2ccccc2)cc1 | 31.1 µM
4 | Nc1nc(-[n+]2ccc(-c3ccncc3)cc2)nc(Cl)c1Cl | 21.8 µM
5 | O=C1CC(c2cccc([N+](=O)[O-])c2)C2(C(=O)NC(=O)NC2=O)C(c2cccc([N+](=O)[O-])c2)C1 (stereo unspecified) | 44 µM
6 | Nc1nc(-c2ccccc2)cc(-c2ccc(OCc3ccccc3)cc2O)n1 | > 100 µM
7 | COC1=C(OC)C(=O)C(Cc2c(C)nc3sccn23)=C(C)C1=O | > 100 µM
8 | CCOC(=O)Cc1nc2cc(F)c(F)cc2[nH]c1=O | > 100 µM
9 | CCOc1ncn(-c2ccc(NC(=S)NC3OC(CO)C(O)C(O)C3O)cc2)n1 (stereo unspecified) | > 100 µM
10 | Cn1c([C@H](C#N)c2ncccc2[N+](=O)[O-])nc2ccccc21 | > 100 µM
11 | O=C(c1ccco1)N(C(=S)OCCOc1ccccc1)c1ccccc1 | 42.8 µM
12 | N#C[C@@H](c1ccccn1)c1ncccc1[N+](=O)[O-] | > 100 µM
13 | COC(=O)C1=CS/C(=C2\S[C@@H]3[C@H](S2)[C@H]2C=C[C@@H]3C2)S1 | > 100 µM
14 | CC(=O)Oc1ccc2cc(-c3ccccc3OC(C)=O)c(=O)oc2c1 | > 100 µM
15 | CC(CC[C@@]1(C)C(=O)CCC2O[C@]21C)[C@H]1C[C@@H](c2ccoc2)OC1=O (stereo partly specified) | > 100 µM
16 | CN(C(=O)Cc1cccc(N=C=S)c1)[C@H]1CCCC[C@@H]1N1CCCC1 | 27.5 µM
17 | N#C/C(=C/NC(N)=S)C(N)=O | > 100 µM
18 | O=C(c1cccs1)N1CCc2ccccc2C1 | > 100 µM
19 | O=c1c2ccccc2nc(Cc2nc(-c3ccc(Cl)cc3)cs2)n1-c1ccc(Cl)cc1 | > 100 µM
20 | CCN(CC)CCSc1c2cc(OC)ccc2nc2ccc(OC)cc12 | > 100 µM
21 | CCOC(=O)c1ccc(NCc2ccc3oc(=O)c(-c4ccccc4)nc3c2)cc1 | 38 µM
22 | CCOC(=O)C1C(=O)CC1(C)C (stereo unspecified) | > 10 µM

tested on: MDA-MB-435; experiment: DTP human tumour cell line panel, 48 h

Row | SMILES | TGI
23 | C(/C=C/Nc1ccc(Oc2ccccc2)cc1)=Nc1ccc(Oc2ccccc2)cc1 | 31.7 µM
24 | Nc1nc(-[n+]2ccc(-c3ccncc3)cc2)nc(Cl)c1Cl | > 100 µM
25 | C[C@@H](c1ccccc1)n1c(N)c(C#N)c2ccc([N+](=O)[O-])cc2c1=O | 61 µM
26 | CC1(C)OC(=O)N(c2ccccc2)C12C=Cc1cc([N+](=O)[O-])ccc1O2 (stereo unspecified) | 62.8 µM
27 | O=C1CC(c2cccc([N+](=O)[O-])c2)C2(C(=O)NC(=O)NC2=O)C(c2cccc([N+](=O)[O-])c2)C1 (stereo unspecified) | > 100 µM
28 | Nc1nc(-c2ccccc2)cc(-c2ccc(OCc3ccccc3)cc2O)n1 | > 100 µM
29 | CCCc1c(O)nc(Nc2nc3ccccc3[nH]2)[nH]c1=O | > 100 µM
30 | COC1=C(OC)C(=O)C(Cc2c(C)nc3sccn23)=C(C)C1=O | 28.6 µM
31 | CCOC(=O)Cc1nc2cc(F)c(F)cc2[nH]c1=O | > 100 µM
32 | CCOc1ncn(-c2ccc(NC(=S)NC3OC(CO)C(O)C(O)C3O)cc2)n1 (stereo unspecified) | > 100 µM
33 | Cn1c([C@H](C#N)c2ncccc2[N+](=O)[O-])nc2ccccc21 | > 100 µM
34 | COCc1nc2c(OC)c(-c3nc4nc(N5CCN(C)CC5)ccc4[nH]3)cc(OC)c2n1C | 48.4 µM
35 | O=C(c1ccco1)N(C(=S)OCCOc1ccccc1)c1ccccc1 | 29.7 µM
36 | N#C[C@@H](c1ccccn1)c1ncccc1[N+](=O)[O-] | > 100 µM
37 | COC(=O)C1=CS/C(=C2\S[C@@H]3[C@H](S2)[C@H]2C=C[C@@H]3C2)S1 | 5.09 µM
38 | CC(=O)Oc1ccc2cc(-c3ccccc3OC(C)=O)c(=O)oc2c1 | > 100 µM
39 | CC(CC[C@@]1(C)C(=O)CCC2O[C@]21C)[C@H]1C[C@@H](c2ccoc2)OC1=O (stereo partly specified) | > 100 µM
40 | CN(C(=O)Cc1cccc(N=C=S)c1)[C@H]1CCCC[C@@H]1N1CCCC1 | 27.8 µM
41 | O=C(NC(Cc1ccccc1)(Cc1ccc(O)cn1)C(=O)O)c1ccccc1 (stereo unspecified) | > 100 µM
42 | O=C1c2ccsc2C(=O)c2sc(CO)cc21 | < 0.0178 µM
43 | N#C/C(=C/NC(N)=S)C(N)=O | > 100 µM
44 | O=C(c1cccs1)N1CCc2ccccc2C1 | > 100 µM
45 | O=c1c2ccccc2nc(Cc2nc(-c3ccc(Cl)cc3)cs2)n1-c1ccc(Cl)cc1 | > 100 µM
46 | CCN(CC)CCSc1c2cc(OC)ccc2nc2ccc(OC)cc12 | 21.3 µM
47 | CCOC(=O)c1ccc(NCc2ccc3oc(=O)c(-c4ccccc4)nc3c2)cc1 | 32.7 µM
48 | CCOC(=O)C1C(=O)CC1(C)C (stereo unspecified) | > 10 µM

tested on: MDA-N; experiment: DTP human tumour cell line panel, 48 h

Row | SMILES | TGI
49 | C(/C=C/Nc1ccc(Oc2ccccc2)cc1)=Nc1ccc(Oc2ccccc2)cc1 | 29.7 µM
50 | Nc1nc(-[n+]2ccc(-c3ccncc3)cc2)nc(Cl)c1Cl | > 100 µM
51 | C[C@@H](c1ccccc1)n1c(N)c(C#N)c2ccc([N+](=O)[O-])cc2c1=O | 78.4 µM
52 | CC1(C)OC(=O)N(c2ccccc2)C12C=Cc1cc([N+](=O)[O-])ccc1O2 (stereo unspecified) | 50.8 µM
53 | O=C1CC(c2cccc([N+](=O)[O-])c2)C2(C(=O)NC(=O)NC2=O)C(c2cccc([N+](=O)[O-])c2)C1 (stereo unspecified) | > 100 µM
54 | Nc1nc(-c2ccccc2)cc(-c2ccc(OCc3ccccc3)cc2O)n1 | > 100 µM
55 | CCCc1c(O)nc(Nc2nc3ccccc3[nH]2)[nH]c1=O | > 100 µM
56 | COC1=C(OC)C(=O)C(Cc2c(C)nc3sccn23)=C(C)C1=O | 26 µM
57 | CCOC(=O)Cc1nc2cc(F)c(F)cc2[nH]c1=O | > 100 µM
58 | CCOc1ncn(-c2ccc(NC(=S)NC3OC(CO)C(O)C(O)C3O)cc2)n1 (stereo unspecified) | > 100 µM
59 | Cn1c([C@H](C#N)c2ncccc2[N+](=O)[O-])nc2ccccc21 | > 100 µM
60 | COCc1nc2c(OC)c(-c3nc4nc(N5CCN(C)CC5)ccc4[nH]3)cc(OC)c2n1C | > 100 µM
61 | O=C(c1ccco1)N(C(=S)OCCOc1ccccc1)c1ccccc1 | 33.9 µM
62 | N#C[C@@H](c1ccccn1)c1ncccc1[N+](=O)[O-] | > 100 µM
63 | COC(=O)C1=CS/C(=C2\S[C@@H]3[C@H](S2)[C@H]2C=C[C@@H]3C2)S1 | > 100 µM
64 | CC(=O)Oc1ccc2cc(-c3ccccc3OC(C)=O)c(=O)oc2c1 | > 100 µM
65 | CC(CC[C@@]1(C)C(=O)CCC2O[C@]21C)[C@H]1C[C@@H](c2ccoc2)OC1=O (stereo partly specified) | > 100 µM
66 | CN(C(=O)Cc1cccc(N=C=S)c1)[C@H]1CCCC[C@@H]1N1CCCC1 | 27.7 µM
67 | O=C(NC(Cc1ccccc1)(Cc1ccc(O)cn1)C(=O)O)c1ccccc1 (stereo unspecified) | > 100 µM
68 | O=C1c2ccsc2C(=O)c2sc(CO)cc21 | < 0.0177 µM
69 | N#C/C(=C/NC(N)=S)C(N)=O | > 100 µM
70 | O=C(c1cccs1)N1CCc2ccccc2C1 | 92.3 µM
71 | O=c1c2ccccc2nc(Cc2nc(-c3ccc(Cl)cc3)cs2)n1-c1ccc(Cl)cc1 | > 100 µM
72 | CCN(CC)CCSc1c2cc(OC)ccc2nc2ccc(OC)cc12 | 8.97 µM
73 | CCOC(=O)c1ccc(NCc2ccc3oc(=O)c(-c4ccccc4)nc3c2)cc1 | 50.8 µM
74 | CCOC(=O)C1C(=O)CC1(C)C (stereo unspecified) | > 10 µM

tested on: NCI-H226 lung; experiment: DTP human tumour cell line panel, 48 h

Row | SMILES | TGI
75 | C(/C=C/Nc1ccc(Oc2ccccc2)cc1)=Nc1ccc(Oc2ccccc2)cc1 | > 100 µM
76 | Nc1nc(-[n+]2ccc(-c3ccncc3)cc2)nc(Cl)c1Cl | > 100 µM
77 | C[C@@H](c1ccccc1)n1c(N)c(C#N)c2ccc([N+](=O)[O-])cc2c1=O | 13.2 µM
78 | CC1(C)OC(=O)N(c2ccccc2)C12C=Cc1cc([N+](=O)[O-])ccc1O2 (stereo unspecified) | > 100 µM
79 | O=C1CC(c2cccc([N+](=O)[O-])c2)C2(C(=O)NC(=O)NC2=O)C(c2cccc([N+](=O)[O-])c2)C1 (stereo unspecified) | > 100 µM
80 | Nc1nc(-c2ccccc2)cc(-c2ccc(OCc3ccccc3)cc2O)n1 | > 100 µM
81 | CCCc1c(O)nc(Nc2nc3ccccc3[nH]2)[nH]c1=O | > 100 µM
82 | CCOC(=O)Cc1nc2cc(F)c(F)cc2[nH]c1=O | > 100 µM
83 | Cn1c([C@H](C#N)c2ncccc2[N+](=O)[O-])nc2ccccc21 | > 100 µM
84 | COCc1nc2c(OC)c(-c3nc4nc(N5CCN(C)CC5)ccc4[nH]3)cc(OC)c2n1C | 87.4 µM
85 | COC(=O)C1=CS/C(=C2\S[C@@H]3[C@H](S2)[C@H]2C=C[C@@H]3C2)S1 | > 100 µM
86 | CC(=O)Oc1ccc2cc(-c3ccccc3OC(C)=O)c(=O)oc2c1 | 70.7 µM
87 | CC(CC[C@@]1(C)C(=O)CCC2O[C@]21C)[C@H]1C[C@@H](c2ccoc2)OC1=O (stereo partly specified) | > 100 µM
88 | O=C(NC(Cc1ccccc1)(Cc1ccc(O)cn1)C(=O)O)c1ccccc1 (stereo unspecified) | > 100 µM
89 | O=C1c2ccsc2C(=O)c2sc(CO)cc21 | 0.643 µM
90 | N#C/C(=C/NC(N)=S)C(N)=O | > 100 µM
91 | O=C(c1cccs1)N1CCc2ccccc2C1 | > 100 µM
92 | O=c1c2ccccc2nc(Cc2nc(-c3ccc(Cl)cc3)cs2)n1-c1ccc(Cl)cc1 | > 100 µM
93 | CCN(CC)CCSc1c2cc(OC)ccc2nc2ccc(OC)cc12 | 53.8 µM
94 | CCOC(=O)c1ccc(NCc2ccc3oc(=O)c(-c4ccccc4)nc3c2)cc1 | > 100 µM
95 | CCOC(=O)C1C(=O)CC1(C)C (stereo unspecified) | > 10 µM

tested on: NCI-H23 lung; experiment: DTP human tumour cell line panel, 48 h

Row | SMILES | TGI
96 | C(/C=C/Nc1ccc(Oc2ccccc2)cc1)=Nc1ccc(Oc2ccccc2)cc1 | 48.7 µM
97 | Nc1nc(-[n+]2ccc(-c3ccncc3)cc2)nc(Cl)c1Cl | 54.9 µM
98 | C[C@@H](c1ccccc1)n1c(N)c(C#N)c2ccc([N+](=O)[O-])cc2c1=O | 43 µM
99 | CC1(C)OC(=O)N(c2ccccc2)C12C=Cc1cc([N+](=O)[O-])ccc1O2 (stereo unspecified) | > 100 µM
100 | O=C1CC(c2cccc([N+](=O)[O-])c2)C2(C(=O)NC(=O)NC2=O)C(c2cccc([N+](=O)[O-])c2)C1 (stereo unspecified) | > 100 µM
101 | Nc1nc(-c2ccccc2)cc(-c2ccc(OCc3ccccc3)cc2O)n1 | > 100 µM
102 | CCCc1c(O)nc(Nc2nc3ccccc3[nH]2)[nH]c1=O | > 100 µM
103 | COC1=C(OC)C(=O)C(Cc2c(C)nc3sccn23)=C(C)C1=O | 29.5 µM
104 | CCOC(=O)Cc1nc2cc(F)c(F)cc2[nH]c1=O | > 100 µM
105 | CCOc1ncn(-c2ccc(NC(=S)NC3OC(CO)C(O)C(O)C3O)cc2)n1 (stereo unspecified) | > 100 µM
106 | Cn1c([C@H](C#N)c2ncccc2[N+](=O)[O-])nc2ccccc21 | > 100 µM
107 | COCc1nc2c(OC)c(-c3nc4nc(N5CCN(C)CC5)ccc4[nH]3)cc(OC)c2n1C | > 100 µM
108 | O=C(c1ccco1)N(C(=S)OCCOc1ccccc1)c1ccccc1 | 39.9 µM
109 | N#C[C@@H](c1ccccn1)c1ncccc1[N+](=O)[O-] | > 100 µM
110 | COC(=O)C1=CS/C(=C2\S[C@@H]3[C@H](S2)[C@H]2C=C[C@@H]3C2)S1 | > 100 µM
111 | CC(=O)Oc1ccc2cc(-c3ccccc3OC(C)=O)c(=O)oc2c1 | > 100 µM
112 | CC(CC[C@@]1(C)C(=O)CCC2O[C@]21C)[C@H]1C[C@@H](c2ccoc2)OC1=O (stereo partly specified) | > 100 µM
113 | CN(C(=O)Cc1cccc(N=C=S)c1)[C@H]1CCCC[C@@H]1N1CCCC1 | 29.5 µM
114 | O=C(NC(Cc1ccccc1)(Cc1ccc(O)cn1)C(=O)O)c1ccccc1 (stereo unspecified) | > 100 µM
115 | O=C1c2ccsc2C(=O)c2sc(CO)cc21 | 0.394 µM
116 | N#C/C(=C/NC(N)=S)C(N)=O | > 100 µM
